± gives the expanded uncertainty stated by the source.
Conditions: Liquid; for viscosity: Capillary tube (Ostwald / Ubbelohde) method; for mass density: Vibrating tube method

Q: With `CCCCCCCCCC` [decane] as the molecule, how does the viscosity (303.15 K, 2001 kPa) read?
A: 0.8079 ± 0.0089 mPa·s

Q: What about the mass density (303.15 K, 2001 kPa) of the same molecule?
A: 724.01 ± 0.96 kg/m3

Q: What about the viscosity (303.15 K, 3991 kPa) of the same molecule?
A: 0.8268 ± 0.0091 mPa·s

Q: And the mass density (303.15 K, 3991 kPa)?
A: 725.58 ± 0.96 kg/m3

Q: What about the viscosity (303.15 K, 6003 kPa) of the same molecule?
A: 0.8461 ± 0.0093 mPa·s

Q: And the mass density (303.15 K, 6003 kPa)?
A: 727.19 ± 0.97 kg/m3

Q: And the viscosity (303.15 K, 8001 kPa)?
A: 0.8655 ± 0.0095 mPa·s

Q: And the mass density (303.15 K, 8001 kPa)?
A: 728.75 ± 0.97 kg/m3

Q: What about the viscosity (303.15 K, 9992 kPa) of the same molecule?
A: 0.885 ± 0.0097 mPa·s

Q: And the mass density (303.15 K, 9992 kPa)?
A: 730.27 ± 0.98 kg/m3

Q: And the viscosity (303.15 K, 13006 kPa)?
A: 0.915 ± 0.01 mPa·s

Q: What about the mass density (303.15 K, 13006 kPa) of the same molecule?
A: 732.5 ± 0.99 kg/m3

Q: And the viscosity (303.15 K, 16005 kPa)?
A: 0.9445 ± 0.01 mPa·s

Q: What about the mass density (303.15 K, 16005 kPa) of the same molecule?
A: 734.69 ± 1 kg/m3

Q: What about the viscosity (303.15 K, 18998 kPa) of the same molecule?
A: 0.9734 ± 0.011 mPa·s

Q: And the mass density (303.15 K, 18998 kPa)?
A: 736.88 ± 1 kg/m3

Q: What about the viscosity (303.15 K, 21997 kPa) of the same molecule?
A: 1.004 ± 0.011 mPa·s

Q: And the mass density (303.15 K, 21997 kPa)?
A: 739 ± 1 kg/m3

Q: What about the viscosity (303.15 K, 25008 kPa) of the same molecule?
A: 1.035 ± 0.011 mPa·s

Q: What about the mass density (303.15 K, 25008 kPa) of the same molecule?
A: 741.03 ± 1 kg/m3

Q: What about the viscosity (303.15 K, 27989 kPa) of the same molecule?
A: 1.066 ± 0.012 mPa·s

Q: What about the mass density (303.15 K, 27989 kPa) of the same molecule?
A: 743.02 ± 1 kg/m3

Q: And the viscosity (303.15 K, 29988 kPa)?
A: 1.086 ± 0.012 mPa·s

Q: And the mass density (303.15 K, 29988 kPa)?
A: 744.3 ± 1.1 kg/m3

Q: And the viscosity (323.15 K, 1995 kPa)?
A: 0.6249 ± 0.007 mPa·s

Q: What about the mass density (323.15 K, 1995 kPa) of the same molecule?
A: 708.76 ± 0.94 kg/m3

Q: What about the viscosity (323.15 K, 4003 kPa) of the same molecule?
A: 0.6386 ± 0.0071 mPa·s

Q: What about the mass density (323.15 K, 4003 kPa) of the same molecule?
A: 710.68 ± 0.94 kg/m3

Q: And the viscosity (323.15 K, 5997 kPa)?
A: 0.6529 ± 0.0073 mPa·s

Q: What about the mass density (323.15 K, 5997 kPa) of the same molecule?
A: 712.57 ± 0.95 kg/m3

Q: And the viscosity (323.15 K, 8005 kPa)?
A: 0.6676 ± 0.0074 mPa·s

Q: What about the mass density (323.15 K, 8005 kPa) of the same molecule?
A: 714.3 ± 0.96 kg/m3

Q: What about the viscosity (323.15 K, 10006 kPa) of the same molecule?
A: 0.6824 ± 0.0076 mPa·s

Q: What about the mass density (323.15 K, 10006 kPa) of the same molecule?
A: 715.96 ± 0.96 kg/m3

Q: And the viscosity (323.15 K, 12995 kPa)?
A: 0.7045 ± 0.0078 mPa·s

Q: What about the mass density (323.15 K, 12995 kPa) of the same molecule?
A: 718.36 ± 0.98 kg/m3

Q: And the viscosity (323.15 K, 15989 kPa)?
A: 0.7274 ± 0.008 mPa·s

Q: What about the mass density (323.15 K, 15989 kPa) of the same molecule?
A: 720.73 ± 0.99 kg/m3

Q: What about the viscosity (323.15 K, 18994 kPa) of the same molecule?
A: 0.7511 ± 0.0083 mPa·s

Q: And the mass density (323.15 K, 18994 kPa)?
A: 723 ± 1 kg/m3

Q: And the viscosity (323.15 K, 21997 kPa)?
A: 0.774 ± 0.0085 mPa·s

Q: What about the mass density (323.15 K, 21997 kPa) of the same molecule?
A: 725.28 ± 1 kg/m3

Q: What about the viscosity (323.15 K, 25006 kPa) of the same molecule?
A: 0.7981 ± 0.0088 mPa·s

Q: And the mass density (323.15 K, 25006 kPa)?
A: 727.5 ± 1 kg/m3

Q: What about the viscosity (323.15 K, 28004 kPa) of the same molecule?
A: 0.822 ± 0.009 mPa·s

Q: What about the mass density (323.15 K, 28004 kPa) of the same molecule?
A: 729.62 ± 1 kg/m3

Q: What about the viscosity (323.15 K, 30005 kPa) of the same molecule?
A: 0.8382 ± 0.0092 mPa·s

Q: And the mass density (323.15 K, 30005 kPa)?
A: 731.03 ± 1 kg/m3

Q: What about the viscosity (353.15 K, 5998 kPa) of the same molecule?
A: 0.4714 ± 0.0053 mPa·s

Q: What about the mass density (353.15 K, 5998 kPa) of the same molecule?
A: 689.96 ± 0.92 kg/m3

Q: And the viscosity (353.15 K, 7997 kPa)?
A: 0.4825 ± 0.0055 mPa·s

Q: What about the mass density (353.15 K, 7997 kPa) of the same molecule?
A: 691.97 ± 0.93 kg/m3

Q: What about the viscosity (353.15 K, 22010 kPa) of the same molecule?
A: 0.5612 ± 0.0063 mPa·s

Q: What about the mass density (353.15 K, 22010 kPa) of the same molecule?
A: 704.95 ± 0.99 kg/m3

Q: What about the viscosity (353.16 K, 2000 kPa) of the same molecule?
A: 0.448 ± 0.0051 mPa·s

Q: What about the mass density (353.16 K, 2000 kPa) of the same molecule?
A: 685.65 ± 0.91 kg/m3

Q: And the viscosity (353.16 K, 3999 kPa)?
A: 0.4596 ± 0.0052 mPa·s

Q: What about the mass density (353.16 K, 3999 kPa) of the same molecule?
A: 687.9 ± 0.9 kg/m3

Q: What about the viscosity (353.16 K, 9991 kPa) of the same molecule?
A: 0.494 ± 0.0056 mPa·s

Q: What about the mass density (353.16 K, 9991 kPa) of the same molecule?
A: 694.06 ± 0.94 kg/m3

Q: What about the viscosity (353.16 K, 13003 kPa) of the same molecule?
A: 0.5106 ± 0.0058 mPa·s

Q: What about the mass density (353.16 K, 13003 kPa) of the same molecule?
A: 697.01 ± 0.95 kg/m3

Q: And the viscosity (353.16 K, 15994 kPa)?
A: 0.5272 ± 0.0059 mPa·s

Q: What about the mass density (353.16 K, 15994 kPa) of the same molecule?
A: 699.86 ± 0.97 kg/m3

Q: What about the viscosity (353.16 K, 19005 kPa) of the same molecule?
A: 0.5442 ± 0.0061 mPa·s

Q: And the mass density (353.16 K, 19005 kPa)?
A: 702.43 ± 0.98 kg/m3

Q: What about the viscosity (353.16 K, 25000 kPa) of the same molecule?
A: 0.5788 ± 0.0065 mPa·s

Q: And the mass density (353.16 K, 25000 kPa)?
A: 707.44 ± 1 kg/m3

Q: What about the viscosity (353.16 K, 27992 kPa) of the same molecule?
A: 0.5967 ± 0.0067 mPa·s

Q: And the mass density (353.16 K, 27992 kPa)?
A: 710.01 ± 1 kg/m3

Q: What about the viscosity (353.16 K, 29995 kPa) of the same molecule?
A: 0.6086 ± 0.0068 mPa·s

Q: And the mass density (353.16 K, 29995 kPa)?
A: 711.67 ± 1 kg/m3
